Reference: ChEMBL document CHEMBL4020715, “Structure-activity relationship study of vitamin D analogs with oxolane group in their side chain” (Eur J Med Chem, 2017)
Activity calls are given as the source filed them. The calls are words filed in the database; no cut-off is given here.

Assays:
Format in all cases: cell-based
[1] = target: T1, Vitamin D3 receptor A (Danio rerio) (UniProt Q9PTN2); experiment: Agonist activity at zebrafish VDR LBD (156 to 453 residues) expressed in HEK293 EBNA cells harboring human CYP24-Tk-Luc plasmid assessed as induction of CYP24a1 gene at 0.1 nM after 18 hrs by dual-luciferase transcriptional reporter gene assay
T1 sequence (whole entry): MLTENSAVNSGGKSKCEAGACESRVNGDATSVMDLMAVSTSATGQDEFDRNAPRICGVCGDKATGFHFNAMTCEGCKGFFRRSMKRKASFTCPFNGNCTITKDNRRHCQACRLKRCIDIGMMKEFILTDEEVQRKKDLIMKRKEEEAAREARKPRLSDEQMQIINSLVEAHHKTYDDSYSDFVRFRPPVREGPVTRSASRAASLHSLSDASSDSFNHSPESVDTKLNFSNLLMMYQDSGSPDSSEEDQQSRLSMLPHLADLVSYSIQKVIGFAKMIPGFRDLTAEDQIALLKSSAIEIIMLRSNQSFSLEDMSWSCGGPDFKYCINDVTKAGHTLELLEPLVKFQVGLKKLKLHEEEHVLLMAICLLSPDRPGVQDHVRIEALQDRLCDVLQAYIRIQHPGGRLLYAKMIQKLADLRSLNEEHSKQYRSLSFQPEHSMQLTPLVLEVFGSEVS

[2] = target: T1, Vitamin D3 receptor A (Danio rerio); experiment: Agonist activity at zebrafish VDR LBD (156 to 453 residues) expressed in HEK293 EBNA cells harboring human CYP24-Tk-Luc plasmid assessed as induction of CYP24a1 gene at 1000 nM after 18 hrs by dual-luciferase transcriptional reporter gene assay relative to control
[3] = target: T2, Vitamin D3 receptor (Homo sapiens) (UniProt P11473); experiment: Agonist activity at VP16-fused human full length VDR expressed in COS7 cells assessed as corepressor Gal4 DBD-fused SMRT NRID release at 10 to 1000 nM after 48 hrs by luciferase reporter gene assay based mammalian two-hybrid assay
T2 sequence (whole entry): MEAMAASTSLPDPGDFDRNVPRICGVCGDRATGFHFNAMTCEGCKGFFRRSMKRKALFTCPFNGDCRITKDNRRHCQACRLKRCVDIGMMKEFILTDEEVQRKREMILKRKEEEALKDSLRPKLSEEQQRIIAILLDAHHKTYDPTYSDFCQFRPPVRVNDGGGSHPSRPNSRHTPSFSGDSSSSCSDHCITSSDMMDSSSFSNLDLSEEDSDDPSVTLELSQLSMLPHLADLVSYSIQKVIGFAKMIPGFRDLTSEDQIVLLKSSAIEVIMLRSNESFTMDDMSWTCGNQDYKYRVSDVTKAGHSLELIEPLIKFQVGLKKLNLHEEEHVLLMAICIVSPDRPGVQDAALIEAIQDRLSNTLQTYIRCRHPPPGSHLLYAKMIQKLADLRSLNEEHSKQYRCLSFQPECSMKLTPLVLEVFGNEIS

[4] = target: T2, Vitamin D3 receptor (Homo sapiens); experiment: Agonist activity at VP16-fused human full length VDR expressed in COS7 cells assessed as corepressor Gal4 DBD-fused NCOR NRID release at 10 to 1000 nM after 48 hrs by luciferase reporter gene assay based mammalian two-hybrid assay
Vitamin D3 receptor A = target: T3, Vitamin D3 receptor A (Danio rerio, UniProt Q9PTN2); experiment: Agonist activity at zebrafish VDR LBD (156 to 453 residues) expressed in HEK293 EBNA cells harboring human CYP24-Tk-Luc plasmid assessed as induction of CYP24a1 gene after 18 hrs by dual-luciferase transcriptional reporter gene assay
T3 sequence (Q9PTN2 whole entry): T1 sequence (whole entry)

[5] = target: T1, Vitamin D3 receptor A (Danio rerio); experiment: Agonist activity at zebrafish VDR LBD (156 to 453 residues) expressed in HEK293 EBNA cells harboring human CYP24-Tk-Luc plasmid assessed as induction of CYP24a1 gene at 100 nM after 18 hrs by dual-luciferase transcriptional reporter gene assay

Q: With `C=C1/C(=C\C=C2/CCC[C@@]3(C)[C@H]2CC[C@@H]3[C@]2(C)C[C@@H](CC(C)(C)O)CO2)C[C@@H](O)C[C@@H]1O` as the compound, how does the Activity [1] read?
A: The Activity was “Active”.

Q: How did the Efficacy [2] turn out when `C=C1/C(=C\C=C2/CCC[C@]3(C)[C@@H]([C@H](C)CCCC(C)(C)O)CC[C@@H]23)C[C@@H](O)C[C@H]1O` was run?
A: Its Efficacy is 100%.

Q: `C=C1/C(=C\C=C2/CCC[C@]3(C)[C@@H]([C@H](C)[C@H]4CC[C@@H](C(C)(C)O)O4)CC[C@@H]23)C[C@@H](O)C[C@H]1O` was tested. Which Efficacy [2] did it give?
A: Its Efficacy is 100%.

Q: What about the Activity [3] of the same compound?
A: Its Activity is “Active”.

Q: And the Activity [4]?
A: Its Activity is “Active”.

Q: And the EC50 (Vitamin D3 receptor A)?
A: Its EC50 is > 100 nM.

Q: What does the source list for `C=C1/C(=C\C=C2/CCC[C@]3(C)[C@@H]([C@H](C)[C@@H]4CC[C@@H](C(C)(C)O)O4)CC[C@@H]23)C[C@@H](O)C[C@H]1O`?
A: Efficacy [2]: 90%; Activity [3]: Active; Activity [5]: Active; Activity [4]: Active; EC50 (Vitamin D3 receptor A): > 100 nM

Q: Which Efficacy [2] does the source give for `C=C1/C(=C\C=C2/CCC[C@]3(C)[C@@H]([C@H](C)[C@@H]4CC[C@H](C(C)(C)O)O4)CC[C@@H]23)C[C@@H](O)C[C@H]1O` here?
A: Its Efficacy is 47%.

Q: And the Activity [3]?
A: Its Activity is “Active”.

Q: And the Activity [4]?
A: The Activity was “Active”.

Q: What about the EC50 (Vitamin D3 receptor A) of the same compound?
A: The EC50 was > 100 nM.
